Test results from patent US11369590B2, “PSMA binding ligand-linker conjugates and methods for using” (Purdue Research Foundation, priority 2007, dated 2022).
Read-outs that look alike come from different tables or passages of the source. *1 amine or outer side, *2 acyl side, *3 side chain or, on linkers, in order; H or OH if unused. Where a SMILES comes first, the peptide text is derived from it. Side-chain parts run from the residue outwards. [ ]: non-standard residue; d: D form. γGlu = O=C(O)[C@H](CCC(=O)[*:2])N[*:1]; Dap = NC[C@H](N)C(=O)O; Aoc = NCCCCCCCC(=O)O; CO = O=C([*:1])[*:2]

Assays:
[1] = target: PSMA (Homo sapiens, UniProt Q04609); conditions: PSMA ligand of formula drawing 51, R^1 as drawn; cited from earlier work
[2] = tested on: LNCaP cells; assay: [3H]-Thymidine incorporation assay, toxicity to LNCaP cells in culture; format: cell-based, human; conditions: LNCaP cells pulsed 2 h, additional 66 h in fresh medium
Procedure: Evaluation of a PSMA-Targeted Therapeutic Agent in Vitro. Analysis of SK71 (FIG. 12A), SK77 (FIG. 12B), SK37 (FIG. 12C), and SK45 (FIG. 12D), toxicity to LNCaP cells in culture. LNCaP cells were pulsed for 2 h with increasing concentrations of SK71 or SK77 in the presence (▴) or absence (▪) of 100-fold molar excess PMPA. After 2× washes, cells were incubated an additional 66 h in fresh medium at 37° C. Cell viability was then analyzed using the [3H]-thymidine incorporation assay, as described herein. Data were obtained in a single experiment and error bars represent s.d. (n=3 wells per concentration).

[3] = Single dose toxicity in live mice; conditions: mouse, in vivo, single dosing
Excerpt: Single dose toxicity in live mice. Administration of SK71 was in a single dose as indicated. […] (See FIG. 9A)

[4] = Multiple dose toxicity in live mice; format: in vivo, mouse
Procedure: Multiple dose toxicity in live mice. SK71 was administered in 5 doses on alternate days (M, W, F, M, W). […] (See FIG. 9B)

[5] = tested on: LNCaP tumors; assay: Efficacy study compared to control group and competition group; format: in vivo, mouse
Procedure: Efficacy study compared to control group and competition group. Animals were treated with (a) the conjugate SK71 administered in 5 doses on alternate days (M, W, F, M, W) at […], and compared to (b) vehicle treated animals (FIG. 10B), and to (c) animals treated with the conjugate in conjunction with PMPA. […] The competition experiments (See FIG. 10C) indicate that the successful treatment of the implanted tumor is related to selective or specific targeting of PSMA mediated delivery.

[6] = tested on: LNCaP cells; conditions: 1 hour
Procedure: Quantification of PSMA Molecules on LNCaP Cells. […] Cells were rinsed three times with 1.0 mL of RPMI. Cells were lysed with tris-buffer, transferred to individual gamma scintigraphy vials, and radioactivity was counted. The plot of cell bound radioactivity verses concentration of radiolabeled compound was used to calculate number of PSMA/LNCaP cell. The radioactivity of a 30 nM sample of SK28-99 mTc (20 uL) was counted. At 4° C. (to prevent endocytosis of PSMA), the number of moles in the 30 nM sample=30 nM×20 uL=(30×10-9 mol/L)×(20×10-6 L)=6×10-13 mol.

[7] = tested on: LNCaP tumors; assay: In vivo imaging of tumors in mouse using PSMA-99mTc compounds; conditions: mice with LNCaP tumors, 4 hours after intraperitoneal injection
Procedure: In Vivo Imaging of Tumors in Mouse Using PSMA-99 mTc. When tumors reached a volume of between 500-600 mm3, 99 mTc-labeled compounds (e.g. SK28-99 mTc, SK60-99 mTc, etc) prepared as described, were administered through intraperitoneal injection […]. Four hours later, animals were euthanized and blood was taken by cardio punch and transferred to individual gamma scintigraphy vials per each animal. The imaging experiments were carried out using either a Kodak or gamma scintigraphic camera imager (FIGS. 6A, 6B, 6C, 7A, 7B and 7C). [Note: PMPA was injected 30 minutes before injecting SK28 -99 mTc.
FIGS. 6A, 6B, and 6C show images of mice with human LNCaP tumors using SK28-99 mTc (radiolabeled 14 Atom spacer).

[8] = tested on: LNCaP tumors; assay: In vivo imaging of LNCaP tumors in mouse using DUPA-99mTc
Procedure: (§1) In Vivo Imaging of Tumors in Mouse Using dupa-99 mTc. To further establish the specificity of our DUPA conjugates for prostate cancer cells, DUPA-99 mTc was injected intraperitoneally (i.p.) into athymic nude mice bearing LNCaP tumors on their shoulders. After 4 h to allow for clearance of unbound conjugate, the distribution of the retained DUPA-99 mTc was imaged by gamma scintigraphy. […] In vivo specificity of the PSMA-targeted imaging agent was further tested by prior administration of excess PMPA to block all PSMA sites before DUPA-99 mTc administration. […] To further document this specificity, the radiotracer was also administered to two PSMA negative mouse xenograft models [A549 (a human lung cancer cell line) and KB (a human nasopharyngeal cancer cell line)], and again whole body images were taken. […] These studies thus confirm that very little DUPA-99 mTc binding occurs to sites unrelated to PSMA in vivo.
(§2) Overlay of whole-body radioimages on white light images of mice bearing LNCaP tumors that were treated with DUPA-99 mTc in the absence 7D(a, c) or presence 7D(b, d) of 100-fold molar excess PMPA. Overlay of radioimages on white light images were also obtained of mice bearing an A549 tumor 7D(e) or a KB tumor 7D(f) that were similarly treated with DUPA-99 mTc. Except in images 7D(a) and 7D(b), kidneys were shielded with lead pads. […]

[9] = tested on: A549 tumors; conditions: mouse, in vivo
Procedure: as §1, §2

[10] = tested on: KB tumors; conditions: mouse, in vivo
Procedure: as §1, §2

PSMA, sequence (Q04609 whole entry, species assumed): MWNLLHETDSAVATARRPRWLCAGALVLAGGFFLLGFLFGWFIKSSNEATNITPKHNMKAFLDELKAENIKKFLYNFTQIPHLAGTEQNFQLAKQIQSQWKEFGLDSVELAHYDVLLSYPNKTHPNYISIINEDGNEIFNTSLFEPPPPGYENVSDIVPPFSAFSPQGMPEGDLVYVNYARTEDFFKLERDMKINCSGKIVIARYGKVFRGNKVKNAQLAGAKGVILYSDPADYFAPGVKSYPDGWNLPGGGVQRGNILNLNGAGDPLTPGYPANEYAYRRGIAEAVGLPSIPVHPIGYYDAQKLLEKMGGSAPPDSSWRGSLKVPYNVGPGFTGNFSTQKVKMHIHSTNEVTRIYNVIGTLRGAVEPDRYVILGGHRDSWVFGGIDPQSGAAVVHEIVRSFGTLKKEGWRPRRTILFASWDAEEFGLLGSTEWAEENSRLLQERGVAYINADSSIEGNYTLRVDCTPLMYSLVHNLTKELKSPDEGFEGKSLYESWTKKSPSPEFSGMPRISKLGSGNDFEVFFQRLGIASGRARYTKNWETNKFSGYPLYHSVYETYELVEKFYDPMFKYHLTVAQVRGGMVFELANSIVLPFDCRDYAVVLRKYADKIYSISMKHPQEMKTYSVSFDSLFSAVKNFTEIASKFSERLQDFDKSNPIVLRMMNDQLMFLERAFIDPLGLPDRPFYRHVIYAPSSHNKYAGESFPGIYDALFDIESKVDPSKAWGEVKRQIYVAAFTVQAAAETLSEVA

In the case of `O=C(O)CCC(NC(=O)NC(CCC(=O)O)C(=O)O)C(=O)O` (centres unmarked), the Ki [1] is listed as 8 nM.
In the case of `CC[C@@]1(OC(=O)OCCSSC[C@H](NC(=O)[C@H](CC(=O)O)NC(=O)[C@@H](N)CNC(=O)[C@H](Cc2ccccc2)NC(=O)[C@H](Cc2ccccc2)NC(=O)CCCCCCCNC(=O)CC[C@H](NC(=O)N[C@@H](CCC(=O)O)C(=O)O)C(=O)O)C(=O)O)C(=O)OCc2c1cc1n(c2=O)Cc2cc3ccccc3nc2-1` [SK45], the IC50 [2] is reported as roughly 29 nM.
For `O=C(O)CCC(NC(=O)NC(CCC(=O)O)c1nnn[nH]1)C(=O)O` (centres unmarked), the Ki [1] is listed as 335 nM.
With `CCCC(=O)OCN(C(=O)[C@@H](NC(=O)[C@H]1CCCCN1C)C(C)CC)[C@H](C[C@@H](OC(C)=O)c1nc(C(=O)N[C@@H](Cc2ccc(O)cc2)C[C@H](C)C(=O)NNC(=O)OCCSSC[C@H](NC(=O)[C@H](Cc2ccccc2)NC(=O)[C@H](CC(=O)O)NC(=O)CC[C@H](NC(=O)CC[C@H](NC(=O)N[C@@H](CCC(=O)O)C(=O)O)C(=O)O)C(=O)O)C(=O)O)cs1)C(C)C` (some centres unmarked) [SK71] the IC50 [2] was roughly 2 nM, the MTD [3] was roughly 4.5 µmol/kg and the visible tumors ([4]; LNCaP tumors, 2 and 4 μmol/kg groups, after 18 days of treatment) was “no mice in the two treated groups had visible tumors”. The MTD ([4]; mouse, in vivo, multiple dosing, 5 doses on alternate days, mice) was 2 µmol/kg, the “tumor size during treatment” value ([5]; 1 μmol/kg, 5 doses on alternate days, starting tumor size approximately 250 mm3) was “successive decrease in tumor size” and the “tumor volume after dosing” value ([5]; 1 μmol/kg, at the cessation of dosing) was “tumor volumes rebounded”. For the same compound, the “tumor response at higher dose” value ([5]; at least 2 μmol/kg, during the testing period) was “complete disappearance of the tumor”.
In the case of `N[C@@H](CNC(=O)[C@H](Cc1ccccc1)NC(=O)[C@H](Cc1ccccc1)NC(=O)CCCCCCCNC(=O)CC[C@H](NC(=O)N[C@@H](CCC(=O)O)C(=O)O)C(=O)O)C(=O)N[C@@H](CC(=O)O)C(=O)N[C@@H](CS)C(=O)O` [SK28-^99mTc, metal not drawn] (H-[Dap]([Phe-Phe-Aoc-γGlu-CO-Glu])-Asp-Cys-OH), the “cell bound radioactivity at the saturation point” value ([6]; 4° C.) is reported as 12 000 cpm, the “cell bound radioactivity at the saturation point” value ([6]; 37° C.) is reported as 33,000 cpm and the “distribution of radioactivity (imaging)” value [7] is reported as “distribution was limited to kidneys”. The “tumor uptake after PMPA block” value ([8]; LNCaP tumors, prior administration of 100-fold molar excess PMPA) was “no DUPA-99 mTc uptake”, the “distribution of retained radiotracer (gamma scintigraphy)” value ([8]; nude mice bearing LNCaP tumors, 4 h after i.p. injection, without PMPA) was “accumulated mainly in the PSMA positive LNCaP tumor” and the radioactivity in tumor [9] was “no radioactivity was observed”. The radioactivity in tumor [10] was “no radioactivity was observed”.
